Data on 1 compound can be found in US20230174523A1, “BENZENESULFONAMIDE DERIVATIVES AS TRAP1 MODULATORS AND USES THEREOF” (Amathus Therapeutics, Inc., priority 2020, published 2023).

Molecules are shown by their SMILES.

Assay [1] relates to primary rat TH+ dopaminergic neurons. As to the kind of experiment: ROS production in primary TH+ dopaminergic neurons injured with MPP+. Format: cell-based. The following applies: injury with MPP+ (4 μM, 4 h); FIG. 6. As for the experimental part:
(§1) Rat dopaminergic neurons were cultured as described by Visanji et al., 2008. Briefly, pregnant female rat of 15 days of gestation are sacrificed using a deep anesthesia with CO2 chamber and a cervical dislocation. The midbrains obtained from 15-day-old rat embryos are dissected under a microscope. The embryonic midbrains are removed and placed in ice-cold medium of Leibovitz (L15) containing 2% of Penicillin-Streptomycin (PS) and 1% of bovine serum albumin (BSA). The ventral portion of the mesencephalic flexure, a region of the developing brain rich in dopaminergic neurons, is used for the cell preparations.
The midbrains are dissociated by trypsinisation for 20 min at 37° C. (solution at a final concentration of 0.05% trypsin and 0.02% EDTA). […] Viable cells are counted in a Neubauer cytometer using the trypan blue exclusion test. […] Six wells per condition are assessed. […]
(§2) For each condition, 20 pictures at 10× magnification (plate 1) or 30 pictures at 20× magnification (representing the whole well area) were automatically taken using ImageXpress®. […] The following read-outs were measured: Analysis of total number of TH neurons (TH positive neuron number), Analysis of the ROS into TH positive neurons, Analysis of caspase 3 positive TH neurons, and Analysis of total neurite network of TH positive neurons (in μm).
(§3) All values are expressed as mean+/−SEM (standard error of the mean). […]

Assay [2] has the same test system. As to the kind of experiment: Survival, neurite network, CytC release and aSyn aggregation of TH+ dopaminergic neurons injured with MPP+. Format: cell-based. How it is done:
as §1
The midbrains are dissociated by trypsinisation for 20 min at 37° C. (solution at a final concentration of 0.05% trypsin and 0.02% EDTA). […] Viable cells are counted in a Neubauer cytometer using the trypan blue exclusion test. […] Six wells per condition are assessed.
as §2, §3

As for `Cc1nn(C)c2sc(C(=O)Nc3ccc(F)c(S(=O)(=O)Nc4ccc(Cl)cc4)c3)cc12` [Compound 705], the “reactive oxygen species (ROS) production” value in assay [1] is “reduction of ROS”. Also, the “neurite network of TH+ dopaminergic neurons” value is listed as “protection of the neurite network” in assay [2] (injury with MPP+ (4 μM, 24 h), FIG. 8) and “protection of neurite network” in assay [2] (injury with MPP+ (4 μM, 48 h), FIG. 11).
